Data reported in patent US20230002324A1, “NAPHTHOQUINONE DERIVATIVES FOR TREATMENT OF OXIDATIVE STRESS DISORDERS” (PTC THERAPEUTICS, INC., priority 2019, published 2023).
Like-named read-outs stand apart in the source and are kept apart here.

What was measured:
CYP3A4 [1] = target: T1, CYP3A4 (Homo sapiens, UniProt P08684); assay: CYP450 Inhibition Assay 1 (pooled human liver microsomes, midazolam); type: in vitro ADME; settings: for IC50: HLM 0.05 mg/mL, midazolam 5 μM, 5 min; for CYP3A4 inhibition, in words: comment on Table 4
T1 construct: from tissue; host or cells: pooled human liver microsomes
Procedure: The CYP450 inhibition assay provides in vitro assessment of the inhibitory potential of the test compounds against cytochrome P450 enzymes. Selective substrates were incubated with pooled human liver microsomes (HLM) as single substrates. All assays employed 100 mM potassium phosphate buffer at pH 7.4.
The assays were performed in a 96-well PCR plate in a final volume of 140 μL at 37° C. Test compounds were evaluated at seven concentrations to obtain IC50 values, with a final concentration of 0.1% DMSO in the incubation (total organic solvent at 1% in the incubation). Reactions were initiated by the addition of NADPH. After the enzyme-specific incubation time had elapsed, an aliquot from that enzyme reaction was quenched in Acetonitrile with 0.2% Formic Acid. Supernatant from the quenched reactions was diluted with an equal volume of water, prior to analysis by LC-MS/MS.
All samples were analyzed on LC-MS/MS using an AB Sciex 6500+ instrument equipped with electrospray ionization source, coupled to a Shimadzu Nexera X2 system. Samples were separated using a Waters UPLC HSS T3, 1.8 μm column, 1×50 mm (catalog #186003535) at a flow rate of 200 μL/min. Injection volume was 2 μL.

[2] = system: normal human fibroblasts (NHF, GM21811); assay: NHF GM21811 RSL3 challenge cell survival (rescue) assay; type: cell-based; settings: Fibroblast, 48 h, read-out: NHF GM21811 RSL3 Survival EC50
How it was run: (§1)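 Q7 (33° C.) or NHF (37° C.) cells, 3,000/well, attached 5 h, then test compounds at varying final concentrations followed within 15 min by RSL3 (2 micromolar final); 0.3% DMSO. Assay medium identical to growth medium.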

[3] = system: Q7 cells (ST HDH Q7/7; immortalized mouse striatal cells); assay: Q7 RSL3 challenge cell survival (rescue) assay; type: cell-based; settings: 18 h, read-out: Q7 RSL3 Survival EC50
How it was run: as §1

[4] = system: Q7 cells (ST HDH Q7/7; immortalized mouse striatal cells); assay: Q7 Cystine Deprivation cell survival (rescue) assay; type: cell-based; settings: 18 h, read-out: Q7 Cystine Deprivation Survival EC50
How it was run: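 Cells were seeded at 3,000/well and allowed to attach for 5 h at 33 °C. Wells were then washed twice with PBS and switched to cystine-free DMEM containing FBS, 4 mM L-glutamine, 1 mM pyruvate and 30 mg/L methionine to induce ferroptotic death. Compounds were scored for survival rescue.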

CYP3A4 [5] = target: T1, CYP3A4; assay: CYP450 Inhibition Assay 2 (pooled human liver microsomes, 5 concentrations); type: in vitro ADME; settings: Table 3; HLM 0.05 mg protein/mL, 10 min reaction
Procedure: In an alternative experimental design, test compounds were evaluated at 5 concentrations in a 96 well assay plate. Initial combination with pooled human liver microsomes (0.05 mg protein/mL) was followed by a 5 minute incubation. […] The assay plate was incubated for an additional 30 minutes before the reaction was initiated with the addition of NADPH. After 10 minutes of reaction time, the reaction was quenched and samples were analyzed in a similar manner as described above.

[6] = NHF cells, RSL3 2 micromolar, Cell Titer Glo
[7] = Q7 cells, RSL3 2 micromolar, Cell Titer Glo
[8] = Q7 cells, cystine-free medium, Cell Titer Glo, 50% relative viability vs Vitamin K2 (1 micromolar)

T1 sequence (P08684 whole entry): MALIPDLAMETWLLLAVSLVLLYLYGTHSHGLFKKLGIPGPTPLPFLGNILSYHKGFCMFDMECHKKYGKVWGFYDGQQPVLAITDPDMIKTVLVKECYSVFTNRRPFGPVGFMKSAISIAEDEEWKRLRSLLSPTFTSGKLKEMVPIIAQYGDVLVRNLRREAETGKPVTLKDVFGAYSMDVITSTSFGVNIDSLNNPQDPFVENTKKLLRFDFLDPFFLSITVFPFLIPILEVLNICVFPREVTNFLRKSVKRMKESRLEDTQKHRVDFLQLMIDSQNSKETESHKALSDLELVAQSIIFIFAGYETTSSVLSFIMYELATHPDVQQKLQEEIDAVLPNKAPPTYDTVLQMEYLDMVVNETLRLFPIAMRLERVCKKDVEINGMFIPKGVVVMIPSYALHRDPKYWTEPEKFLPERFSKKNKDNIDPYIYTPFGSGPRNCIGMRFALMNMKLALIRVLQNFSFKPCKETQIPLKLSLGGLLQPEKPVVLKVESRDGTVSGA

SMILES | EC50 [2, 6] | EC50 [3, 7] | IC50 (CYP3A4 [1]; Table 3) | also measured
CC1=C(Cc2cccnc2)C(=O)c2ccccc2C1=O [Comparison Compound 1, reference compound] |  |  |  | IC50 (CYP3A4 [1]; Table 4 comparison): 0.421 µM; CYP3A4 inhibition, in words (CYP3A4 [1]): very potent inhibitor of CYP3A4
CC1=C(Cc2ccncc2)C(=O)c2ccccc2C1=O [Comparison Compound 2, reference compound] |  |  |  | IC50 (CYP3A4 [1]; Table 4 comparison): 1.07 µM; CYP3A4 inhibition, in words (CYP3A4 [1]): potent CYP3A4 inhibitor
CC1=C(Cc2ccc(C(F)(F)F)cn2)C(=O)c2ccccc2C1=O [Example 1, 2-methyl-3-((5-(trifluoromethyl)pyridin-2-yl)methyl)naphthalene-1,4-dione] | < 50 nM | < 50 nM | 5.78 µM | EC50 [4, 8]: < 50 nM; IC50 (CYP3A4 [5]): 35.7 µM
CC1=C(Cc2ccccn2)C(=O)c2ccccc2C1=O [Example 23, 2-methyl-3-(pyridin-2-ylmethyl)naphthalene-1,4-dione] |  |  | 22.8 µM | EC50 [4, 8]: < 50 nM; IC50 (CYP3A4 [5]): 12.7 µM
CCC1=C(Cc2ccc(C(F)(F)F)cn2)C(=O)c2ccccc2C1=O [Example 26, 2-ethyl-3-((5-(trifluoromethyl)pyridin-2-yl)methyl)naphthalene-1,4-dione] | < 50 nM | < 50 nM |  | EC50 [4, 8]: < 50 nM; IC50 (CYP3A4 [5]): 14.2 µM
CC(C)C1=C(Cc2ccc(C(F)(F)F)cn2)C(=O)c2ccccc2C1=O [Example 30, 2-isopropyl-3-((5-(trifluoromethyl)pyridin-2-yl)methyl)naphthalene-1,4-dione] |  |  |  | EC50 [2]: < 50 nM; EC50 [4]: < 50 nM; IC50 (CYP3A4 [5]): 10.3 µM
CCC1=C(Cc2ccc(C(F)(F)F)cn2)C(=O)c2c(F)ccc(F)c2C1=O [Example 55, 2-ethyl-5,8-difluoro-3-((5-(trifluoromethyl)pyridin-2-yl)methyl)naphthalene-1,4-dione] |  |  | 3.68 µM | EC50 [2]: < 50 nM; EC50 [3]: < 50 nM
[2H]C([2H])([2H])C1=C(Cc2ccc(C(F)(F)F)cn2)C(=O)c2cc(F)cc(F)c2C1=O [Example 57, 5,7-difluoro-3-(methyl-d3)-2-((5-(trifluoromethyl)pyridin-2-yl)methyl)naphthalene-1,4-dione] |  | < 50 nM | 1.49 µM | 
CC1=C(Cc2ccc(C(F)(F)F)c(C#N)n2)C(=O)c2ccc(F)cc2C1=O [Example 70, 6-((6-fluoro-3-methyl-1,4-dioxo-1,4-dihydronaphthalen-2-yl)methyl)-3-(trifluoromethyl)picolinonitrile] | < 50 nM | < 50 nM | 4.14 µM | 
CC1=C(Cc2ccc(C(F)(F)F)c(C#N)n2)C(=O)c2c(F)ccc(F)c2C1=O [Example 79, 6-((5,8-difluoro-3-methyl-1,4-dioxo-1,4-dihydronaphthalen-2-yl)methyl)-3-(trifluoromethyl)picolinonitrile] | < 50 nM | < 50 nM | 2.4 µM | 
CCC1=C(Cc2ccc(C(F)(F)F)c(C#N)n2)C(=O)c2ccc(F)cc2C1=O [Example 81, 6-((3-ethyl-6-fluoro-1,4-dioxo-1,4-dihydronaphthalen-2-yl)methyl)-3-(trifluoromethyl)picolinonitrile] | < 50 nM | < 50 nM | 11 µM | 
CCC1=C(Cc2ccc(C(F)(F)F)c(C#N)n2)C(=O)c2c(F)ccc(F)c2C1=O [Example 83, 6-((3-ethyl-5,8-difluoro-1,4-dioxo-1,4-dihydronaphthalen-2-yl)methyl)-3-(trifluoromethyl)picolinonitrile] |  | < 50 nM | 2.73 µM | 
N#Cc1nc(CC2=C(C3CC3)C(=O)c3c(F)ccc(F)c3C2=O)ccc1C(F)(F)F [Example 84, 6-((3-cyclopropyl-5,8-difluoro-1,4-dioxo-1,4-dihydronaphthalen-2-yl)methyl)-3-(trifluoromethyl)picolinonitrile] | < 50 nM | < 50 nM | 1.56 µM | 
CCC1=C(Cc2ccc(C(F)(F)F)c(C#N)n2)C(=O)c2cc(F)cc(F)c2C1=O [Example 86, 6-((3-ethyl-5,7-difluoro-1,4-dioxo-1,4-dihydronaphthalen-2-yl)methyl)-3-(trifluoromethyl)picolinonitrile] | < 50 nM | < 50 nM | 6.66 µM | 
CC1=C(Cc2ccc(C(F)(F)F)cn2)C(=O)c2c(ccc(F)c2F)C1=O [Example 128, 5,6-difluoro-2-methyl-3-((5-(trifluoromethyl)pyridin-2-yl)methyl)naphthalene-1,4-dione] |  | < 50 nM | 1.3 µM | 
